From patent US20220143010A1, “CANCER TREATMENT COMPRISING NALTREXONE AND A CANNABINOID” (LDN Pharma Limited, priority 2019, published 2022)
“Also recorded” adds a separate entry of the source. Read-outs that look alike come from different tables or passages of the source.

Columns and labels:
Assay type in all cases: cell-based
CB2 = assay: Western blot of CB2 levels in MCF7 cultures after two days of treatment; details: for levels of the CB2 receptor after treatment: cancer cells (MCF7), summary statement
Experimental: Levels of Bcl2-associated death promoter (BAD), p21 protein, the opioid receptors kappa 1 (OPRK1) and mu 1 (OPRM1), and the cannabinoid receptors CBR1 (CB1) and CBR2 (CB2) are visualised by Western blot (left) against GAPDH as a loading control, and quantified via density analysis relative to GAPDH (right).
One illustrative and non-limiting experiment was carried out on cultures of MCF7 (breast cancer) cells. In brief, either LDN at 10 nM or 6BN at 1 μM or 10 μM was administered in vitro to a culture for two days, after which the expression levels of BAD, p21, opioid receptors kappa and mu, CB1, CB2, and GAPDH (as a loading control) were analysed via Western blot and subsequent quantification via density measurement of the bands.
In full, MCF7 cells were seeded into 6-well plates at a density of 1×10^5/well and left to adhere over-night. Naltrexone (10 nM) or 6-β-naltrexol (1 μM or 10 μM) were added to the cells before harvesting cells for western blot analysis. Primary probing was performed with specific antibodies generated against BAD, p21, OPRK1, […], CBR-1 and CBR-2. […] Anti-GAPDH was used as a loading control. All antibodies were used at a dilution of 1:1000, followed by the appropriate HRP conjugated secondary antibodies also at a dilution of 1:1000. Bands were visualised by the SuperSignal chemiluminescent detection system, and densitometry of band intensity was determined using Adobe Photoshop CS3, v10.0, and normalised to the loading control.

[1] = system: MCF7 (breast cancer) cells; assay: Two-stage sequential treatment, cell number and viability (trypan blue); details: LDN 10 nM or 6BN 10 μM for 48 h before cannabidiol 10 μM for 48 h, versus reversed sequence
Experimental: Each treatment lasted four days and consisted of two days of treatment with the first agent (UN=control, LDN=Low Dose Naltrexone at 10 nM CBD=Cannabidiol, 6BN=6-β-naltrexol) before the second-named agent was introduced for a further two days.
Another illustrative and non-limiting experiment was carried out on cultures of MCF7 (breast cancer) cells. In brief, the cultures were treated with LDN or 6BN for two days, after which a cannabinoid was administered for a further two days. Cell number and viability were assessed on day four. The sequence of the administration for each therapeutic agent was reversed and the experiment repeated.
In full, MCF7 cells were seeded into 6-well plates at a density of 1.5×10^4/well and left to adhere. Cells were then cultured with naltrexone (10 nM), 6-β-naltrexol (10 μM) or cannabidiol (10 μM). Drug-containing media was removed after 48 h, and cells were rinsed gently with drug-free medium. Fresh culture medium was then added to the cells supplemented with either naltrexone (10 nM), 6-β-naltrexol (10 μM) or cannabidiol (10 μM), as indicated in the graph. Cell number and viability were assessed a further 48 h later, with percentages of live and dead cells being discriminated by trypan blue dye exclusion. Data were then consolidated to compare the effect of sequence on overall effect.

A549 (lung cancer) cells = assay: Two-block schedule LDN+CBD and chemotherapeutic agent, cell number and viability at 96 h
Experimental: • A549 (lung cancer) and HCT116 (colon cancer) cells were cultured with drugs according to the schedules in Table 1. The schedules lasted a total of 96 h. • Treatments were separated into two blocks, each lasting 48 h. Due to the complications of cell testing using three different drugs in three different treatment phases, the CBD and LDN were administered together in one treatment phase and the chemotherapeutic agent in the other treatment phase. • There was a washout period between the two blocks, where exhausted media containing drugs were removed, cells then washed, before fresh media was added that contained the next block of treatment. • The chemotherapeutic agents were gemcitabine (GEM) or oxaliplatin (OXP), and used at an ˜IC20 concentration (1 uM). Low dose naltrexone (LDN) was used at 10 nM and cannabinoid (CBD) was used at 1 uM. “0” means nothing was administered and is used as a control. • Cell number and percentage cell viability were assessed at 96 h. Data were then consolidated to compare the effect of sequence on overall effect.

Structure (SMILES)	rise of CB2 compared among the three treatments (CB2; MCF7 cells, 10 μM 6BN, two days)	levels of the CB2 receptor after treatment (CB2)	effect on inhibiting the proliferation of the cancer, by sequence [1]	IC20 (A549 (lung cancer) cells; Homo sapiens, A549, read-out: IC20 concentration) [nM]	IC20 (A549 (lung cancer) cells; concentration used in Example 3, A549 and HCT116, cell line not specified, read-out: IC20 concentration) [nM]
Oc1ccc2c3c1OC1C(O)CC[C@@]4(O)[C@@H](C2)N(CC2CC2)CC[C@]314 (stereo partly shown) [6BN, N-cyclopropylmethyl-7,8-dihydro-14-hydroxynorisomorphine]	highest	significant increase	greater effect on inhibiting the proliferation	–	–
Nc1ccn([C@@H]2O[C@H](CO)[C@@H](O)C2(F)F)c(=O)n1 [GEM, gemcitabine]	–	–	–	~1000	–
O=C1CC[C@@]2(O)[C@H]3Cc4ccc(O)c5c4[C@@]2(CCN3CC2CC2)[C@H]1O5 [LDN, 17-cyclopropylmethyl-4.5α-epoxy-3,14-dihydroxymorphinan-6-one]	–	significant increase; also recorded: increased significantly	greater effect on inhibiting the proliferation	–	–
O=C1[O][Pt]2([NH][C@@H]3CCCC[C@H]3[NH]2)[O]C1=O [OXP, oxaliplatin]	–	–	–	–	~1000
